The source of these data is PMC10547880, “Synthesis and biological evaluation of novel 1,2,3-triazole hybrids of cabotegravir: identification of potent antitumor activity against lung cancer” (Frontiers in Pharmacology, 2023).

Bounds are passed on as bounds.

The IC50 is the concentration that inhibits the measured activity by half. A high value points to weaker potency.

Common to all, as to assay type: cell-based, Human
One data set deals with H460 cells. The data set is described as follows: CCK8 cell viability and IC50 measurement, H460. The settings on record: for Cell viability: H460, 25 μM; for IC50: H460, 72 h, CCK8; for cell proliferation inhibition rate: H460, 72-h treatment. As to the method: (§1) Human lung cancer cell line H460 and H1299, human liver normal cell line LO2 were bought from ATCC. DMEM or RPMI 1640 was used as the cell culture medium with 10% FBS and 1% penicillin/streptomycin. Cells were maintained in an incubator with 37°C humidified atmosphere and 5% CO2.
(§2) Cell viability and IC50 values were determined using the CCK8 assay kit. Cells were seeded at a density of 5 × 10^3 cells per well in a 96-well plate. After overnight adhesion, 25 μM of compounds or vehicle control DMSO which all dissolved in the culture medium were added to cells and cultured for 48 h or 72 h. CCK8 reagent, dissolved in the medium, was then added to cells and incubated for 1 h. The absorbance at 450 nm was measured using a microplate spectrophotometer (Thermo). Cell viability was calculated, with the untreated group taken as 100%. For IC50 values determination, different concentrations (0, 0.4 μM, 2 μM, 10 μM, 20 μM, 50 μM) of compounds were added to cells for 72 h. Subsequent CCK8 measurement allowed the calculation of inhibition percentage based on cell viability. The IC50 values were computed by the prism statistical software. The CCK-8 assay was conducted three times and the repetitions in each time were at least three. All the values were expressed as Mean ± SD, p < 0.05 was considered statistically significant.
(§3) In order to assess the potential cytotoxicity of the synthesized compounds, we selected two types of human non-small-cell lung cancer cell line, H460 and H1299. Cell viability and cytotoxicity were evaluated using the CCK8 assay ([Xu et al., 2018]). The cells were treated with 25 μM of compounds 5a-5s and 6a-6i for 48h and 72 h. […] In contrast, no compounds managed to reduce H1299 cell viability to less than 50%, yet compounds 5i, 5m, 6h and 6i achieved cell viability rates below 70%. […] It is worth noting that minimal effects on the cell viability of the normal cell line LO2 were observed when exposed to these compounds. Further, we determined the half-maximal inhibitory concentration (IC50) of selected compounds against H460 cells, the results of which were summarized in Table 3.

The next data set has as its system H1299 cells. The data set is described as follows: CCK8 cell viability, H1299. The note with it: H1299, 25 μM. As for the experimental part: as §1, §2, §3
The next data set concerns LO2 cells. Put plainly: CCK8 cell viability, normal cell line LO2. The settings on record: LO2 normal liver cells, 25 μM, 72 h. As to the method: as §1, §2, §3

Take `COc1c2n(cc(C(=O)Nc3cccc(-c4cn(-c5ccccc5C(F)(F)F)nn4)c3)c1=O)CC1OCC(C)N1C2=O` (centres unmarked) [Compound 5a]: the Cell viability with H460 cells (48 h) is given as 87.78%; in the data set on H460 cells (72 h) it was 65.75%; in the data set with H1299 cells (48 h), 121.35%; in the data set with H1299 cells (72 h) it was 102.55%; with LO2 cells, 105.28%. The compound further displayed an IC50 in the data set with H460 cells of 31.8 ± 0.47 µM.

In the case of `COc1c2n(cc(C(=O)Nc3cccc(-c4cn(-c5ccccc5C)nn4)c3)c1=O)CC1OCC(C)N1C2=O` (centres unmarked) [Compound 5c], the “cell proliferation inhibition rate” value in the data set with H460 cells is listed as “exceed 50%”. Moreover, the midpoint of inhibition with H460 cells, the IC50, lay at 9.65 ± 0.04 µM. For the same compound, the Cell viability was found to be 94.81% in the data set on H1299 cells (48 h), 83.51% in the data set with H1299 cells (72 h) and 73.79% in the data set on LO2 cells.

For `CCc1ccccc1-n1cc(-c2cccc(NC(=O)c3cn4c(c(OC)c3=O)C(=O)N3C(C)COC3C4)c2)nn1` (centres unmarked) [Compound 5d], the Cell viability is reported as 92.17% with H460 cells (48 h), 117.48% in the data set on H1299 cells (48 h), 99.81% in the data set with H1299 cells (72 h) and 127.81% in the data set with LO2 cells. Moreover, the “cell proliferation inhibition rate” value in the data set with H460 cells was “exceed 50%”. The compound further had a half-maximal inhibitory concentration (IC50) with H460 cells of 12.7 ± 4.85 µM.

Regarding `COc1c2n(cc(C(=O)Nc3cccc(-c4cn(-c5cc(C(F)(F)F)cc(C(F)(F)F)c5)nn4)c3)c1=O)CC1OCC(C)N1C2=O` (centres unmarked) [Compound 5e], the Cell viability is recorded as 101.34% in the data set on H460 cells (48 h); 101.97% in the data set on H460 cells (72 h); 103.75% with H1299 cells (48 h); 99.34% with H1299 cells (72 h); 129.12% in the data set on LO2 cells. Also, the 50% inhibitory concentration (IC50) in the data set with H460 cells is more than 100 µM.

Regarding `COc1c2n(cc(C(=O)Nc3cccc(-c4cn(-c5cccc(F)c5)nn4)c3)c1=O)CC1OCC(C)N1C2=O` (centres unmarked) [Compound 5f], the Cell viability amounted to 93.31% in the data set on H460 cells (48 h); 100.16% in the data set on H460 cells (72 h); 114.19% in the data set on H1299 cells (48 h); 100.41% in the data set with H1299 cells (72 h); 130.35% in the data set on LO2 cells.

`COc1ccccc1-n1cc(-c2cccc(NC(=O)c3cn4c(c(OC)c3=O)C(=O)N3C(C)COC3C4)c2)nn1` (centres unmarked) [Compound 5g]: the Cell viability with H460 cells (48 h) was found to be 82.94%; in the data set with H460 cells (72 h) it was 99.43%; in the data set with H1299 cells (48 h), 117.81%; in the data set with H1299 cells (72 h), 103.45%; with LO2 cells it was 128.56%.

As for `COc1c2n(cc(C(=O)Nc3cccc(-c4cn(-c5cccc(C(F)(F)F)c5)nn4)c3)c1=O)CC1OCC(C)N1C2=O` (centres unmarked) [Compound 5h], the Cell viability was determined as 97.75% in the data set with H460 cells (48 h); 75.09% in the data set on H460 cells (72 h); 114.98% with H1299 cells (48 h); 93.73% with H1299 cells (72 h); 101.34% with LO2 cells. Moreover, the IC50 with H460 cells was more than 100 µM.

Take `COc1c2n(cc(C(=O)Nc3cccc(-c4cn(-c5ccc(C(F)(F)F)cc5)nn4)c3)c1=O)CC1OCC(C)N1C2=O` (centres unmarked) [Compound 5j]: the Cell viability in the data set on H460 cells (48 h) is 100.66%; with H460 cells (72 h), 111.72%; in the data set with H1299 cells (48 h), 96.98%; in the data set on H1299 cells (72 h) it was 92.49%; in the data set with LO2 cells, 108.63%.

As for `COc1c2n(cc(C(=O)Nc3cccc(-c4cn(-c5cc(C(F)(F)F)ccc5C(F)(F)F)nn4)c3)c1=O)CC1OCC(C)N1C2=O` (centres unmarked) [Compound 5k], the Cell viability with H460 cells (48 h) was 94.55%; with H460 cells (72 h), 52.15%; in the data set on H1299 cells (48 h), 113.47%; with H1299 cells (72 h), 91.70%; in the data set with LO2 cells, 124.51%. Moreover, the 50% inhibitory concentration (IC50) with H460 cells worked out at 36 ± 2.73 µM.

For the compound `COc1c2n(cc(C(=O)Nc3cccc(-c4cn(-c5c(C)cc(C)cc5C)nn4)c3)c1=O)CC1OCC(C)N1C2=O` (centres unmarked) [Compound 5l], the Cell viability with H460 cells (48 h) is recorded as 84.74%; in the data set with H460 cells (72 h), 98.25%; with H1299 cells (48 h), 118.92%; in the data set with H1299 cells (72 h), 91.44%; in the data set with LO2 cells, 125.46%.

For `COc1c2n(cc(C(=O)Nc3cccc(-c4cn(-c5ccccc5Br)nn4)c3)c1=O)CC1OCC(C)N1C2=O` (centres unmarked) [Compound 5m], the Cell viability amounted to 96.50% in the data set on H460 cells (48 h), 94.59% in the data set with H460 cells (72 h), 112.42% in the data set on H1299 cells (48 h) and 111.3% in the data set on LO2 cells. Also, the IC50 in the data set on H460 cells is more than 50 µM.

`COc1c2n(cc(C(=O)Nc3cccc(-c4cn(-c5ccc(F)cc5)nn4)c3)c1=O)CC1OCC(C)N1C2=O` (centres unmarked) [Compound 5n]: the Cell viability with H460 cells (48 h) was 99.22%; with H460 cells (72 h), 105.04%; with H1299 cells (48 h) it was 115.05%; in the data set with H1299 cells (72 h), 91.74%; with LO2 cells, 127.86%.

`COc1c2n(cc(C(=O)Nc3cccc(-c4cn(-c5ccccc5I)nn4)c3)c1=O)CC1OCC(C)N1C2=O` (centres unmarked) [Compound 5o]: the Cell viability with H460 cells (48 h) came to 101.09%; with H460 cells (72 h), 104.29%; in the data set on H1299 cells (48 h), 120.83%; with H1299 cells (72 h), 86.67%; in the data set with LO2 cells, 100.11%.

For the compound `COc1c2n(cc(C(=O)Nc3cccc(-c4cn(-c5ccccc5)nn4)c3)c1=O)CC1OCC(C)N1C2=O` (centres unmarked) [Compound 5p], the Cell viability in the data set on H460 cells (48 h) is given as 88.36%; in the data set on H460 cells (72 h), 104.18%; in the data set with H1299 cells (48 h) it was 114.26%; with H1299 cells (72 h), 87.16%; in the data set on LO2 cells, 109.72%.

On to `COc1c2n(cc(C(=O)Nc3cccc(-c4cn(-c5cccc(Cl)c5)nn4)c3)c1=O)CC1OCC(C)N1C2=O` (centres unmarked) [Compound 5q], for which the Cell viability with H460 cells (48 h) worked out at 99.40%; with H460 cells (72 h), 104.14%; in the data set on H1299 cells (48 h), 107.23%; in the data set on H1299 cells (72 h), 88.40%; in the data set on LO2 cells it was 125.35%. In the data set with H460 cells, this compound returned a concentration for half-maximal inhibition (IC50) of more than 100 µM.

Consider `COc1c2n(cc(C(=O)Nc3cccc(-c4cn(-c5cccc(Br)c5)nn4)c3)c1=O)CC1OCC(C)N1C2=O` (centres unmarked) [Compound 5r], for which the Cell viability with H460 cells (48 h) is on record as 99.03%; in the data set on H460 cells (72 h), 107.13%; in the data set with H1299 cells (48 h) it was 117.54%; in the data set with H1299 cells (72 h), 89.82%; in the data set with LO2 cells, 127.81%.

Regarding `COc1c2n(cc(C(=O)Nc3cccc(-c4cn(-c5ccccc5Cl)nn4)c3)c1=O)CC1OCC(C)N1C2=O` (centres unmarked) [Compound 5s], the Cell viability in the data set on H460 cells (48 h) turned out to be 71.73%; with H1299 cells (48 h) it was 127.14%; in the data set with H1299 cells (72 h) it was 97.37%; with LO2 cells, 122.75%. The “cell proliferation inhibition rate” value in the data set on H460 cells is listed as “exceed 50%”. Also, the IC50 with H460 cells turned out to be 13.4 ± 4.54 µM.

Turning to `COc1c2n(cc(C(=O)Nc3cccc(-c4cn(Cc5ccccc5)nn4)c3)c1=O)CC1OCC(C)N1C2=O` (centres unmarked) [Compound 6a], the Cell viability turned out to be 99.81% in the data set with H460 cells (48 h); 118.33% in the data set with H460 cells (72 h); 118.73% in the data set on H1299 cells (48 h); 101.39% in the data set with H1299 cells (72 h); 127.44% in the data set on LO2 cells. The compound also yielded an IC50 with H460 cells of more than 50 µM.

Regarding `COc1c2n(cc(C(=O)Nc3cccc(-c4cn(Cc5ccccc5Br)nn4)c3)c1=O)CC1OCC(C)N1C2=O` (centres unmarked) [Compound 6b], the Cell viability came out at 51.88% in the data set on H460 cells (48 h), 104.60% in the data set with H1299 cells (48 h), 101.92% with H1299 cells (72 h) and 126.52% in the data set on LO2 cells. Moreover, the “cell proliferation inhibition rate” value in the data set on H460 cells is “exceed 50%”. The compound further had an IC50 with H460 cells of 30.5 ± 2.18 µM.
